We go through one molecule from US20220313715A1, “PHARMACEUTICAL COMPOSITION, FOR PREVENTING OR TREATING HEPATIC FIBROSIS, COMPRISING 8-OHDG” (GIL MEDICAL CENTER, priority 2016, published 2022).

One test relates to hydroxyproline. Briefly: Hydroxyproline level in liver tissue of bile duct ligation liver fibrosis animal model. Format: in vivo, Sprague-Dawley rats. The note with it: BDL rats, 8-OHdG 60 mg/kg/day for 3 weeks (Experimental Group 2) vs BDL only (Experimental Group 1); absorbance at 560 nm; FIG. 1. From the text: 250 g to 300 g male Sprague-Dawley rats were subject to bile duct ligation (BDL) and atresia of bile duct to prepare liver fibrosis animal models. […] Six of the animal models were laparotomized, and the proximal and distal bile ducts were ligated and then cut in the middle to separate the bile duct. The animal models were then sutured and allowed to recover to be used for Experimental Group 1. Six animal models treated in the same manner as experimental group 1 were sutured and administered with 8-OHdG in the amount of 60 mg/kg/day for 3 weeks to be used for Experimental Group 2. The animal models of each of the control and experimental groups were sutured and raised for 3 weeks, followed by taking blood and liver tissues therefrom to be used for subsequent experimental procedures.

In a further test the test system is TGF-β. Briefly: qPCR mRNA level of TGF-β in liver tissue of liver fibrosis animal model. Format: in vivo, Sprague-Dawley rats. To be noted: BDL rats, 60 mg/kg/day for 3 weeks vs Experimental Group 1, GAPDH internal control, FIG. 2a. From the text: (§1) 250 g to 300 g male Sprague-Dawley rats were subject to bile duct ligation (BDL) and atresia of bile duct to prepare liver fibrosis animal models. Six of the animal models were laparotomized, and the proximal and distal bile ducts were ligated and then cut in the middle to separate the bile duct. The animal models were then sutured and allowed to recover to be used for Experimental Group 1. Six animal models treated in the same manner as experimental group 1 were sutured and administered with 8-OHdG in the amount of 60 mg/kg/day for 3 weeks to be used for Experimental Group 2. The animal models of each of the control and experimental groups were sutured and raised for 3 weeks, followed by taking blood and liver tissues therefrom to be used for subsequent experimental procedures. […]
Background: Real-time PCR tracks product formation cycle by cycle.

Another test concerns TIMP-1. Briefly: qPCR mRNA level of TIMP-1 in liver tissue of liver fibrosis animal model. Format: in vivo, Sprague-Dawley rats. The note with it: BDL rats, 60 mg/kg/day for 3 weeks vs Experimental Group 1, FIG. 2b.
Description: as §1

The test system of a further test is Collagen Iα1. Briefly: qPCR mRNA level of collagen in liver tissue of liver fibrosis animal model. Format: in vivo, Sprague-Dawley rats. To be noted: BDL rats, 60 mg/kg/day for 3 weeks vs Experimental Group 1, FIG. 2c.
Description: as §1

Test [1] concerns α-SMA. Briefly: qPCR mRNA level of α-SMA in liver tissue of liver fibrosis animal model. Format: in vivo, Sprague-Dawley rats. To be noted: BDL rats, 60 mg/kg/day for 3 weeks vs Experimental Group 1, FIG. 2d.
Description: as §1

Test [2] concerns NOX1. Briefly: qPCR mRNA level of NOX1 in liver tissue of liver fibrosis animal model. Format: in vivo, Sprague-Dawley rats. To be noted: BDL rats, 60 mg/kg/day for 3 weeks vs Experimental Group 1, FIG. 2e.
Description: as §1

Test [3] concerns NOX2. Briefly: qPCR mRNA level of NOX2 in liver tissue of liver fibrosis animal model. Format: in vivo, Sprague-Dawley rats. The note with it: BDL rats, 60 mg/kg/day for 3 weeks vs Experimental Group 1, FIG. 2f.
Description: as §1

The next test deals with collagen. Briefly: Picro Sirius Red staining of collagen in liver tissue of liver fibrosis animal model. Format: in vivo, Sprague-Dawley rats. To be noted: BDL rats, 60 mg/kg/day for 3 weeks vs Experimental Group 1; Picro Sirius Red stain, ImageJ; FIG. 3a. From the text: (§2) 250 g to 300 g male Sprague-Dawley rats were subject to bile duct ligation (BDL) and atresia of bile duct to prepare liver fibrosis animal models. Six of the animal models were laparotomized, and the proximal and distal bile ducts were ligated and then cut in the middle to separate the bile duct. The animal models were then sutured and allowed to recover to be used for Experimental Group 1. Six animal models treated in the same manner as experimental group 1 were sutured and administered with 8-OHdG in the amount of 60 mg/kg/day for 3 weeks to be used for Experimental Group 2. The animal models of each of the control and experimental groups were sutured and raised for 3 weeks, followed by taking blood and liver tissues therefrom to be used for subsequent experimental procedures.

For test [4], the system named is α-SMA. Briefly: Western blot of α-SMA protein in liver tissue of liver fibrosis animal model. Format: in vivo, Sprague-Dawley rats. The note with it: BDL rats, 60 mg/kg/day for 3 weeks vs Experimental Group 1, GAPDH internal control, FIG. 3b. The text has this:
250 g to 300 g male Sprague-Dawley rats were subject to bile duct ligation (BDL) and atresia of bile duct to prepare liver fibrosis animal models. Six of the animal models were laparotomized, and the proximal and distal bile ducts were ligated and then cut in the middle to separate the bile duct. The animal models were then sutured and allowed to recover to be used for Experimental Group 1. Six animal models treated in the same manner as experimental group 1 were sutured and administered with 8-OHdG in the amount of 60 mg/kg/day for 3 weeks to be used for Experimental Group 2. The animal models of each of the control and experimental groups were sutured and raised for 3 weeks, followed by taking blood and liver tissues therefrom to be used for subsequent experimental procedures. […] GAPDH protein was used as an internal control.

Test [5] concerns NOX1. Briefly: Immunofluorescent staining of NOX1 in liver tissue of liver fibrosis animal model. Format: in vivo, Sprague-Dawley rats. The note with it: BDL rats, 60 mg/kg/day for 3 weeks vs Experimental Group 1, FIG. 3c.
Description: as §2

The subject of test [6] is NOX2. Briefly: Immunofluorescent staining of NOX2 in liver tissue of liver fibrosis animal model. Format: in vivo, Sprague-Dawley rats. The note with it: BDL rats, 60 mg/kg/day for 3 weeks vs Experimental Group 1, FIG. 3d.
Description: as §2

The test system of test [7] is α-SMA. Briefly: Immunofluorescent staining of α-SMA (hepatic stellate cell activity index) in liver tissue of liver fibrosis animal model. Format: in vivo, Sprague-Dawley rats. To be noted: BDL rats, 60 mg/kg/day for 3 weeks vs Experimental Group 1; immunofluorescent co-staining with NOX1 (FIG. 3c) or NOX2 (FIG. 3d).
Description: as §2

The target in a further test is RAC1 (Homo sapiens, UniProt P63000). To be noted: binds to RAC1-GTP through competition with GTP; leads to inhibition of activity of NOX complex; cited from earlier work.

Take `Nc1nc2c(nc(O)n2[C@H]2C[C@H](O)[C@@H](CO)O2)c(=O)[nH]1` [8-OHdG, 8-hydroxydeoxyguanosine]: the “level of hydroxyproline in the liver tissue” value in the test with hydroxyproline is “reduced”. Besides, the “mRNA level of TGF-β in the liver tissue” value with TGF-β was “reduced”. In addition, the “mRNA level of TIMP-1 in the liver tissue” value in the test on TIMP-1 is listed as “reduced”. Further, the “mRNA level of collagen in the liver tissue” value in the test with Collagen Iα1 was “reduced”. Also, the “mRNA level of α-SMA in the liver tissue” value with α-SMA [1] was “reduced”. Further, in the test with NOX1 [2], the “mRNA level of NOX1 in the liver tissue” value is on record as “reduced”. In addition, in the test with NOX2 [3], the “mRNA level of NOX2 in the liver tissue” value was “reduced”. Moreover, the “protein level of collagen in the liver tissue” value in the test with collagen is “reduced”. Moreover, the “protein level of α-SMA in the liver tissue” value in the test with α-SMA [4] was “reduced”. Moreover, the “protein level of NOX1 in the liver tissue” value with NOX1 [5] is listed as “reduced”. In the test on NOX2 [6], the “protein level of NOX2 in the liver tissue” value is listed as “reduced”. In addition, the “protein level of α-SMA used as a hepatic stellate cell activity index” value with α-SMA [7] is reported as “reduced”. At RAC1, the RAC1 activation result is “inhibits”.
